From US20260295137A1, “METHOD FOR REMOVING UREMIC TOXINS FROM BLOOD” (INSTITUT NATIONAL DE LA SANTÉ ET DE LA RECHERCHE MÉDICALE, priority 2023, published 2026)

Assays:
[1] = system: pigs; assay: In vivo hemodialysis in anesthetized pigs: tolerance
[2] = In vivo hemodialysis in anesthetized pigs: removal of IS; settings: octanoate vs saline, 2 h HD; P<0.05
[3] = Hemodialysis of fresh bovine blood (closed loop): removal of p-CS
Excerpt: (§1) To assess the reality of the displacement and the increase of the removal of PBUT during a hemodialysis session, batches of 20 liters of fresh bovine blood were collected from the slaughterhouse under the authorization VC18731 (Oct. 4, 2018) issued from the Direction Départmentale de la Protection des Populations—Direction des Services Vétérinaires (DDPP-DSV, Lyon, France). Blood was heparinized at 3,750 UI/L with Sodium Heparin (Choay, Cheplapharm, France) and filtered on a nylon mesh. Two liters of blood (2 L) were spiked with 200 μmol/L of IS and gently stirred for 2 hours at 37° C. A 2-hour hemodialysis session was performed with Fresenius 5008 CorDiax hemodialysis generator (Fresenius, Sevres, France) and with a polysulfone-based hemodialysis membrane (FXHDF1000, 2.2 m^2, Fresenius Medical Care, Bad Homburg, Germany). Arterial and venous port were disposed in the blood batch to perform a closed loop circuit (see representation of the experimental device on FIG. 1). Blood and dialysate flow rates were set at 200 and 300 mL/min, respectively and dialysate temperature was set at 38° C. […] Blood samples were collected from the arterial lines at 0, 15, 30, 45, 60, 75, 90 and 120 minutes. Blood was centrifuged at 9,000 g for 2 minutes and plasma was stored at −20° C. […] At the beginning and the end of the experiment, hemolysis was estimated through the measurement of free hemoglobin in plasma as described above. Total protein concentration was measured according to the method of Lowry using bovine serum albumin as standard. Hematocrit was measured using a micromethod (Mondal H, Lotfollahzadeh S. Hematocrit. 2023 Jan. 2. In: StatPearls [Internet]. Treasure Island (FL): StatPearls Publishing; 2023). Briefly, 70 μL of blood was collected in a heparinized capillary tube. The end of the capillary tube was sealed with clay sealant and centrifuged at a rate of 9000 rpm for 5 min. The hematocrit level was read using a microhematocrit card reader.
(§2) 5-Hydroxyindole-2-carboxylic acid (5-HICA) was used as an internal standard in all experiments. Plasma samples were centrifugated at 17 000 rpm for 5 minutes. 125 μL of the supernatant was then pretreated using the Ostro Pass-through Sample Preparation Device (Waters, Saint-Quentin-en-Yvelines, France), including an in-well protein precipitation with acetonitrile (375 μL) in combination with a pass-through method that allows a good extraction. Eluants were evaporated to dryness in a gentle stream of nitrogen gas. […] Total PBUT concentrations were determined by a reverse phase HPLC with an isocratic flow at 0.2 ml/min. p-CS and IS were determined by fluorescence analysis (excitation λex: 270 nm; emission λem: 320 nm).

[4] = system: bovine red blood cells; assay: Hemodialysis of fresh bovine blood: hematocrit, hemolysis, plasma protein; settings: continuous infusion of octanoate for 2 h
[5] = In vivo hemodialysis in anesthetized pigs: removal of p-CS; settings: octanoate vs saline, 2 h HD; P<0.05
[6] = system: fresh bovine blood; assay: In vitro hemolysis assay; format: cell-based; settings: 4 h, 37° C.; for hemolysis compared to control: 1-3 mmol/L
Description: (§3) One milliliter of fresh bovine blood was incubated for 4 h at 37° C. with 50 μL of a solution of medium chain fatty acids (final concentration: 0.25, 0.5, 1, 2 or 3 mmol/L) or PBS as control. A positive control of hemolysis (taken as 100% hemolysis) was produced by incubating 1 mL of bovine blood with 0.1% (v/v) of TRITON X100 followed by 2 freeze-thaw cycles. Samples were centrifuged 2 min at 9000×g and plasma was stored at −20° C. until free hemoglobin assay. Hemolysis was estimated by the free hemoglobin concentration. Hemoglobin concentration was determined spectrophotometrically as described by Fairbanks et al (Clin Chem. 1992 January; 38 (1): 132-40). Briefly, plasma samples were diluted to 1:10 in Na2CO3 9.4 mmol/L and absorbance was read at 415 nm, 450 nm and 700 nm on a microplate reader (Tecan, Lyon, France).
(§4) Free hemoglobin concentration was calculated using the following equation: […]
(§5) Wherein: • fHb is the concentration of free hemoglobin in g/L, • A is the absorbance at the specified wavelength, • d is the dilution factor.
(§6) Results were expressed as percent of total hemolysis.
(§7) Fresh bovine blood was incubated for 4 h (the full duration of a typical hemodialysis session) at 37° C. in presence of MCFAs (1-3 mmol/L) and dosage of free hemoglobin in plasma was taken as an index of hemolysis (FIG. 6A-D).

[7] = In vitro hemolysis assay; format: cell-based, bovine; settings: bovine, blood, 37° C., control 1.5%; for hemolysis at 4 h: MCFA 1-3 mmol/L (exact concentration not stated), median (IQR); for hemolysis at 4 h, 3000 µM: 3 mmol/L
Description: as §3, §4, §5, §6, §7

[8] = Hemodialysis of fresh bovine blood (closed loop): removal of IS
Excerpt: as §1, §2

[9] = target: T1, human serum albumin (Homo sapiens, UniProt P02768); assay: Ultrafiltration competition assay: displacement of p-CS from HSA; format: binding; settings: for free fraction of p-CS: displacer 3 mM, median (IQR), baseline 14%
T1 construct: purchased Sigma-Aldrich (Saint Quentin Fallavier, France) A9511
T1 sequence (P02768 25-609): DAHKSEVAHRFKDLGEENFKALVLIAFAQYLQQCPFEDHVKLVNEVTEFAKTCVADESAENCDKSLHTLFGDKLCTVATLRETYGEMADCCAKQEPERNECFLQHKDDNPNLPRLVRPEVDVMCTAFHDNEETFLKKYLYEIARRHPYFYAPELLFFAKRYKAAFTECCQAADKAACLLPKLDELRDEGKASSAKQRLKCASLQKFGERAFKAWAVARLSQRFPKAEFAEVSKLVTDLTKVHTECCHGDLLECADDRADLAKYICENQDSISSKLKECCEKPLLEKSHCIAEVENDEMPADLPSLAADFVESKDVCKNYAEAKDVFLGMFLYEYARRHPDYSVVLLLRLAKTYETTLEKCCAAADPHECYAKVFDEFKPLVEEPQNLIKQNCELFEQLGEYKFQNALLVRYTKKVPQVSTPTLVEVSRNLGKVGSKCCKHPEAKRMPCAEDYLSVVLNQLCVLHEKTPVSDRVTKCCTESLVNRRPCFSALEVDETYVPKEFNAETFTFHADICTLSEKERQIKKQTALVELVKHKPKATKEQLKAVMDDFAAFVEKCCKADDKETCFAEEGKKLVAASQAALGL
Description: (§8) Control experiments were performed by adding the same volume of PBS instead of displacer. Then, 600 μL of samples were transferred in filtration devices (Corning®, Spin-X® UF Concentrator, Wiesbaden, Germany, MWCO: 5 kDa) and were centrifuged at 10,000 g for 5 min and 13,000 g for 15 min at room temperature. Ultrafiltrate was collected and free fraction of IS concentration were assayed fluorometrically as described thereafter.
(§9) Samples were diluted in PBS and fluorescence was measured with a Jasco FP-8300iRM Spectro-fluorometer (Jasco, Tokyo, Japan).
The free fraction of p-CS was measured using ultrafiltration experiments as described as described above.

[10] = target: T1, human serum albumin; assay: Ultrafiltration competition assay: displacement of IS from HSA; format: binding; settings: IS 250 μmol/L, HSA 500 μM; for free fraction of IS: displacer 3 mM, pH 7.40, median (IQR), baseline 10.0%; for concentration dependence of increase in free fraction of IS: displacer 1-3 mM
Description: as §8, §9
The free fraction of IS was measured using ultrafiltration experiments as described as described above.

[11] = background art; cited from earlier work

CCCCCCCC(=O)O [Octanoate, octanoic acid]
hemolysis ([1]; hematocrit and free hemoglobin, sodium octanoate i.v. during HD): no hemolysis | tolerance ([1]; sodium octanoate 333 mmol/L i.v. at 18 mL/h, 2 h HD): Tolerance of all animals was good and no side effect was noticed | increase of dialytic clearance of IS [2]: +113% | fractional removal of p-CS ([3]; 2 h HD, octanoate infusion, control 38%, p<0.001): 88% | half-life of p-CS in plasma ([3]; octanoate infusion, control 20.6 min): 12.8 min | increase of fractional removal of p-CS ([3]; octanoate vs control, p<0.001): 2.3 folds | toxin removal, pCS ([3]; per-dialytic infusion of octanoate, control 0.3 μmol/min): 1 μmol/min | change in hematocrit [4]: did not elicit any significant change in hematocrit | change in hemolysis levels [4]: did not elicit any significant change in hematocrit or hemolysis levels | increase of dialytic clearance of p-CS [5]: +101% | hemolysis compared to control [6]: did not trigger any significant hemolysis | hemolysis at 4 h [7]: 2.3% | fractional removal of IS ([8]; 2 h HD, octanoate infusion, control 36%, p<0.001): 91% | half-life of IS in plasma ([8]; octanoate infusion, control 36.4 min): 15.2 min | increase of fractional removal of IS ([8]; octanoate vs control, p<0.001): 2.5 folds | toxin removal, IS ([8]; per-dialytic infusion of octanoate, control 1.5 μmol/min): 3.5 µmol/min

CCCCCCCCCC(=O)O [Decanoate, decanoic acid]
free fraction of p-CS [9]: 59% (57%-63%) | free fraction of IS [10]: 54% (52%-58%) | hemolysis at 4 h, 3000 µM [7]: 21.9%

CCCCCCCCCCCC(=O)O [Dodecanoate, dodecanoic acid]
free fraction of IS [10]: 42% (41%-44%) | concentration dependence of increase in free fraction of IS [10]: dose dependently increased the free fraction of IS | concentration triggering hemolysis ([6]; bovine blood): higher than 0.25 mmol/L | hemolysis at 4 h, 500 µM ([7]; 0.5 mmol/L): 15.3% | hemolysis at 4 h, 3000 µM [7]: 24.9%

CCCCCC(=O)O [Hexanoate, hexanoic acid]
free fraction of p-CS [9]: 36% (34%-41%) | concentration dependence of increase in free fraction of p-CS ([9]; highest concentration 3 mM): only increased the free fraction of p-CS at the highest concentration tested | free fraction of IS [10]: 36% (34%-39%) | concentration dependence of increase in free fraction of IS [10]: only increased the free fraction of IS at the highest concentration tested | hemolysis compared to control [6]: did not trigger any significant hemolysis | hemolysis at 4 h [7]: 3.6%

CCCCCCCC/C=C\CCCCCCCC(=O)O [oleic acid]
effect on dyslipidemia [11]: exacerbate dyslipidemia

CCCCC/C=C\C/C=C\CCCCCCCC(=O)O [linoleic acid]
effect on dyslipidemia [11]: exacerbate dyslipidemia
